Test results from US20130149269A1, “NOVEL MALODOR COUNTERACTANT” (priority 2011, published 2013).

How the values were obtained:
[1] = Sweat malodor counteracting test, trained sensory panel (LMS rating); details: for Malodor Intensity / % MOR: sweat malodor; for Malodor Intensity: mean LMS 0-100, 24 hours equilibration; for % MOR: relative to Malodor Alone
From the text: (§1) Establishment of Malodor Models: A number of malodorous chemicals have been identified, which are associated with different types of malodors. Commercial samples of these chemicals (commercially available at Sigma-Aldrich Inc.) were thus used in the present invention as malodorous model compounds to assess the effectiveness of methyl 3-methyl cyclohexane carboxylate in counteracting malodors.
(§2) A model of bathroom malodor was established using a solution of isovaleric acid (“IVA”) in diethyl phthalate (“DEP”) (10% by weight). A model of sweat malodor was established using a solution of 3-methyl-2-hexanoic acid in DEP (5% by weight). A model of mold/mildew malodors was established using a solution of 2-ethyl-1-hexanol in DEP (20% by weight). A model of smoke malodor was established by applying a solution of 3-acetyl pyridine in DEP (5% by weight) onto a piece of cloth.
(§3) Preparation of Test Samples: Methyl 3-methyl cyclohexane carboxylate was prepared at a series of concentrations, ranging from 0.1% to 5% in DEP, with corresponding vapor phase concentrations ranging from about 4 μg to about 0.2 mg per liter of air space.
(§4) A malodor material as established above (1 g) and a solution of methyl 3-methyl cyclohexane carboxylate in DEP (1 g) were pipetted into separate aluminum weighing dishes located at the bottom of a 32 oz. jar (1 L). For negative control samples (Malodor Alone), the malodor material (0.5 g) was pipetted into each of the two dishes located at the bottom of jar. Jars were then capped and the samples were allowed to equilibrate for 24 hours before testing.
(§5) Testing Procedure: Test samples were presented in a blind and pseudorandom order to a group of trained panelists (consisting of 12-17 females with a mean age of 40 years). The panelists were instructed to take the following steps: i) sniff malodor reference jars for familiarization prior to each testing session; ii) uncap a jar; iii) place their noses at a distance of about 3-4 inches above the opening; iv) take short sniffs for about 2-3 seconds; and v) enter a rating of overall intensity and malodor intensity on a handheld computer.
(§6) The overall and malodor intensity was rated using the Labeled Magnitude Scale (LMS) [Green, et al., Chemical Senses, 21(3), June 1996, 323-334]. Mean (“Malodor Intensity”) and standard error of the mean (“SE”, ±) were obtained, where 0 represents “No Sensation” and 100 represents “The Strongest Imaginable Malodor Sensation”. Percent malodor reduction (“% MOR”) represents the perceived reduction in mean malodor intensity of the sample containing the malodor in the presence of methyl 3-methyl cyclohexane carboxylate relative to the negative control (Malodor Alone).

[2] = Mold/mildew malodor counteracting test, trained sensory panel (LMS rating); details: for Malodor Intensity / % MOR: mold/mildew malodor; for Malodor Intensity: mean LMS 0-100, 24 hours equilibration; for % MOR: relative to Malodor Alone
From the text: as §1, §2, §3, §4, §5, §6

[3] = Smoke malodor counteracting test, trained sensory panel (LMS rating); details: for Malodor Intensity / % MOR: smoke malodor; for Malodor Intensity: mean LMS 0-100, 24 hours equilibration; for % MOR: relative to Malodor Alone
From the text: as §1, §2, §3, §4, §5, §6

[4] = Bathroom malodor counteracting test, trained sensory panel (LMS rating); details: for Malodor Intensity / % MOR: bathroom malodor; for Malodor Intensity: mean LMS 0-100, 24 hours equilibration; for % MOR: relative to Malodor Alone
From the text: as §1, §2, §3, §4, §5, §6

[5] = overall conclusion, 0.1% to 5% in DEP

With `COC(=O)C1CCCC(C)C1` (stereo not drawn) [Methyl 3-Methyl Cyclohexane Carboxylate, methyl 3-methyl cyclohexane carboxylate] the “counteracting the sweat malodor (result in words)” value [1, 5] was “effective”, the “Malodor Intensity” value ([1]; 0.1% in DEP, 4 μg/L) was 4.48 and the “% MOR” value ([1]; 0.1% in DEP, 4 μg/L) was 77.92%. The “Malodor Intensity” value ([1]; 0.5% in DEP, 21 μg/L) was 5.12, the “% MOR” value ([1]; 0.5% in DEP, 21 μg/L) was 72.63% and the “Malodor Intensity” value ([1]; 1% in DEP, 42 μg/L) was 5.42. For the same molecule, the “% MOR” value ([1]; 1% in DEP, 42 μg/L) was 73.14%, the “Malodor Intensity” value ([1]; 5% in DEP, 208 μg/L) was 3.55 and the “% MOR” value ([1]; 5% in DEP, 208 μg/L) was 81.47%. The “Malodor Intensity” value ([2]; 0.1% in DEP, 4 μg/L) was 9.88, the “% MOR” value ([2]; 0.1% in DEP, 4 μg/L) was 40.01% and the “Malodor Intensity” value ([2]; 0.5% in DEP, 21 μg/L) was 5.44. The “% MOR” value ([2]; 0.5% in DEP, 21 μg/L) was 69.56%, the “Malodor Intensity” value ([2]; 1% in DEP, 42 μg/L) was 4.44 and the “% MOR” value ([2]; 1% in DEP, 42 μg/L) was 76.51%. For the same molecule, the “Malodor Intensity” value ([2]; 5% in DEP, 208 μg/L) was 3.34, the “% MOR” value ([2]; 5% in DEP, 208 μg/L) was 83.07% and the “counteracting the mold/mildew malodor (result in words)” value [2, 5] was “effective”. For the same molecule, the “counteracting the smoke malodor (result in words)” value [3, 5] was “effective”, the “Malodor Intensity” value ([3]; 0.1% in DEP, 4 μg/L) was 10.02 and the “% MOR” value ([3]; 0.1% in DEP, 4 μg/L) was 51.95%. For the same molecule, the “Malodor Intensity” value ([3]; 0.5% in DEP, 21 μg/L) was 7.23, the “% MOR” value ([3]; 0.5% in DEP, 21 μg/L) was 66.04% and the “Malodor Intensity” value ([3]; 1% in DEP, 42 μg/L) was 4.78. For the same molecule, the “% MOR” value ([3]; 1% in DEP, 42 μg/L) was 77.57%, the “Malodor Intensity” value ([3]; 5% in DEP, 208 μg/L) was 4.23 and the “% MOR” value ([3]; 5% in DEP, 208 μg/L) was 80.07%. The “Malodor Intensity” value ([4]; 0.1% in DEP, 4 μg/L) was 8.65, the “% MOR” value ([4]; 0.1% in DEP, 4 μg/L) was 56.93% and the “Malodor Intensity” value ([4]; 0.5% in DEP, 21 μg/L) was 5.44. The “% MOR” value ([4]; 0.5% in DEP, 21 μg/L) was 66.47%, the “Malodor Intensity” value ([4]; 1% in DEP, 42 μg/L) was 2.69 and the “% MOR” value ([4]; 1% in DEP, 42 μg/L) was 86.11%. For the same molecule, the “Malodor Intensity” value ([4]; 5% in DEP, 208 μg/L) was 1.71, the “% MOR” value ([4]; 5% in DEP, 208 μg/L) was 90.86% and the “counteracting the bathroom malodor (result in words)” value [4, 5] was “effective”.
